Measurements reported in publication PMC4579064 (Toxicology and applied pharmacology, 2015).

Legend:
CYP3A5 = CYP3A5 (Homo sapiens, UniProt P20815); assay: recombinant CYP activity with fluorogenic substrate; assay type: biochemical
liver Ces = assay: liver carboxylesterase; assay type: in vivo, rat; settings: menadione 20 min after parathion
CYP2B6 = molecular target: T1, CYP2B6 (Homo sapiens, UniProt P20813)
T1 sequence (P20813 1-491): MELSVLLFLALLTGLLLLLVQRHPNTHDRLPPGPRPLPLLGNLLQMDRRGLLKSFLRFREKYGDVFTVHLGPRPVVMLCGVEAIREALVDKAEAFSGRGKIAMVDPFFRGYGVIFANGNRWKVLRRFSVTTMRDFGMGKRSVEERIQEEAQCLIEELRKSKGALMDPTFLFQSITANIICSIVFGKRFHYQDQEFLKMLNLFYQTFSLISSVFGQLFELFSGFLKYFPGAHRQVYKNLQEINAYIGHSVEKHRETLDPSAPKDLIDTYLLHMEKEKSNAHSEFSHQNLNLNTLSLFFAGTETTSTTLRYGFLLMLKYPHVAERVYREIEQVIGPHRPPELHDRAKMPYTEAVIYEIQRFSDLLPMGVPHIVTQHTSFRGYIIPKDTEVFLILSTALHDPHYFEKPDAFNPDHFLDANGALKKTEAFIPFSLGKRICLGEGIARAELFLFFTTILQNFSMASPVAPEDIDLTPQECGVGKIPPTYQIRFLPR

CYP1A1 = molecular target: T2, CYP1A1 (Homo sapiens, UniProt P04798); assay: recombinant CYP activity with fluorogenic substrate
T2 sequence (P04798 1-512): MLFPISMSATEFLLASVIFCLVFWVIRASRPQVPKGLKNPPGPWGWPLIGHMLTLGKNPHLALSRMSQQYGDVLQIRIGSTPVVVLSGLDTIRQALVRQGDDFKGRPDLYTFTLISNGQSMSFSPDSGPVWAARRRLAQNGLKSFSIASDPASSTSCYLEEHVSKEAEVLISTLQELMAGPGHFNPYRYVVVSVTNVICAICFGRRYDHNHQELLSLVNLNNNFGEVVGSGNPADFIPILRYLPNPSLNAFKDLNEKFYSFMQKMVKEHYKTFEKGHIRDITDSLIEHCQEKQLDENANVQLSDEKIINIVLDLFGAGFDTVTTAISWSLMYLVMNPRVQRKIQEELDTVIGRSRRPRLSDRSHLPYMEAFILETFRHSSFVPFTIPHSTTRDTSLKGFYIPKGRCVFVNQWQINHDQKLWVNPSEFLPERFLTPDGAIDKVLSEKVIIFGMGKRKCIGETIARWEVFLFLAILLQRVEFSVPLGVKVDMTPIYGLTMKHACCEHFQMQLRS
T2 sequence (P16435 2-677 partner): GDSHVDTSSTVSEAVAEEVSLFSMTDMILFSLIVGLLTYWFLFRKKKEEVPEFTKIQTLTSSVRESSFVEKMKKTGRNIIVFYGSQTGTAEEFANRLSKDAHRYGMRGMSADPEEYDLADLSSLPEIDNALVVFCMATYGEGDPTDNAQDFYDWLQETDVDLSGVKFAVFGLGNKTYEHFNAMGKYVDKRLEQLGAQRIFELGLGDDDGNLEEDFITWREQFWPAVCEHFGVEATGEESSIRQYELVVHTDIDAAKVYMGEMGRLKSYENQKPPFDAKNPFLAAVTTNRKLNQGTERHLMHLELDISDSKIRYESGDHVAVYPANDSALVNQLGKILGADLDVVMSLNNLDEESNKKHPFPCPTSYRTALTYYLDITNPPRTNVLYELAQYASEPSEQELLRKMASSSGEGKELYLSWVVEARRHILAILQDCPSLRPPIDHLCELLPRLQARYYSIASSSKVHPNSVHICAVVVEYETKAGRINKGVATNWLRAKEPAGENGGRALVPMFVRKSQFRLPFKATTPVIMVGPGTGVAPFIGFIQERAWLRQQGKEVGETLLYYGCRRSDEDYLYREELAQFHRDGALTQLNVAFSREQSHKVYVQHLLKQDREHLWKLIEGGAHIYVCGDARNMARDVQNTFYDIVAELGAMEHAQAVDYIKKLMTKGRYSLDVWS

Chain of CYP3A5 (P20815 whole entry, one chain of several): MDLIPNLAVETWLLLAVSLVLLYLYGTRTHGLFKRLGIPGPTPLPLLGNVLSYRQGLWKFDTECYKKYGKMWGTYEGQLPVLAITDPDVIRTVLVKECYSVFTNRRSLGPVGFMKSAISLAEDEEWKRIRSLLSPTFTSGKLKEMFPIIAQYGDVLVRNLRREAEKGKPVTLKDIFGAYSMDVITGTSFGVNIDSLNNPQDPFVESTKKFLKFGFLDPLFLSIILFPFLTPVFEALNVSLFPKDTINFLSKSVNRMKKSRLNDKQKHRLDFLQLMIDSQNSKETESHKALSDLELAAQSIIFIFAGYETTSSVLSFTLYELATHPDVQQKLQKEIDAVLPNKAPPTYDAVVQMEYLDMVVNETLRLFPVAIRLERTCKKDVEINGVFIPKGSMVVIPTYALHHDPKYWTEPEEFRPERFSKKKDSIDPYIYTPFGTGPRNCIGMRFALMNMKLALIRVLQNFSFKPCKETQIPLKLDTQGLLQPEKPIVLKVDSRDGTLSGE

CC1=CC(=O)c2ccccc2C1=O [menadione, 2-methylnaphthalene-1,4-dione]
IC50 (CYP3A5): 9.77 ± 3.33 µM | inhibition of liver Ces by parathion (liver Ces): reduced the inhibition | paraoxon formation (CYP2B6): marked decrease | IC50 (CYP1A1): 4.39 ± 0.42 µM
